Data from PMC8231572, “New Heparanase-Inhibiting Triazolo-Thiadiazoles Attenuate Primary Tumor Growth and Metastasis” (Cancers, 2021).
Entries after “also recorded” stand apart in the source; their conditions may differ.

How the values were obtained:
[1] = molecular target: T1, heparanase (Homo sapiens, UniProt Q9Y251); assay: Colorimetric heparanase assay (fondaparinux/Arixtra cleavage, WST-1); type: biochemical; details: fondaparinux substrate, heparanase 140 pM, pH 5.0, 37 °C, 18 h; for IC50: read-out: IC50, inhibition of heparanase enzymatic activity (converted)
T1 sequence (Q9Y251 158-543 limits assumed): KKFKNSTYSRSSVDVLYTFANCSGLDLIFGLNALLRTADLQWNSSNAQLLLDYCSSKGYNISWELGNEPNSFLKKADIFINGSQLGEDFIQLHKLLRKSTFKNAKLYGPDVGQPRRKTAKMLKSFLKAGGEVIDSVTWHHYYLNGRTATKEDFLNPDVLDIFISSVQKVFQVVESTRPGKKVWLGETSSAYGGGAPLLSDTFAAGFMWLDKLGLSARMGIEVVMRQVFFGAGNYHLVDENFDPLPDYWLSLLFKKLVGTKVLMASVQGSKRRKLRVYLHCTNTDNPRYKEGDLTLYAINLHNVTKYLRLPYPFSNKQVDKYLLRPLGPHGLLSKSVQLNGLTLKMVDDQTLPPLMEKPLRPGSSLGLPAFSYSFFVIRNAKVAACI
T1 sequence (Q9Y251 36-109 limits assumed): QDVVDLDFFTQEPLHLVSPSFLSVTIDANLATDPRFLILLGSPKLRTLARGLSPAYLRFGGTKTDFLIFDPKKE
Procedure: The assay was carried out in a 96-well plate in which the formation of the disaccharide product upon cleavage of fondaparinux (Arixtra, GlaxoSmithKline, Brentford, UK) was estimated using WST-1 tetrazolium salt as described earlier. In brief, the reaction system (100 μL) comprised sodium acetate buffer (pH 5.0, 40 mM) and fondaparinux ([…]) with or without different doses of chemicals under investigation. The assay was initiated by the addition of recombinant heparanase to make the final concentration of 140 pM. The reaction vessels were placed at 37 °C for 18 h, followed by the addition of stop solution (100 μL). WST-1 prepared in 0.1 M NaOH served as a stop solution. Thereafter, the plates were incubated at 60 °C for 60 min, and absorbance was measured at 584 nm. N-(4-([4-(1H-Benzoimidazol-2-yl)-arylamino]-methyl)-phenyl)-benzamide (compound #98) was used as a reference compound. The title compounds were examined for their inhibitory efficacy towards heparanase at 10 and 50 μg/mL. Compounds that yielded inhibition at these concentrations were further tested at lower concentrations to determine their IC50.
The newly synthesized compounds presented in Table 1 were examined for their ability to inhibit the enzymatic activity of recombinant heparanase. For the initial screening of compounds, we applied a colorimetric assay based on the cleavage of the synthetic heparin pentasaccharide fondaparinux (Arixtra). The assay measures the appearance of a disaccharide product of heparanase-catalyzed fondaparinux cleavage, using the tetrazolium salt WST-1 [23]. All compounds were first tested for inhibition of heparanase at 10 and 50 μg/mL (not shown). Compounds that yielded inhibition at these high concentrations were further examined at lower concentrations to determine their IC50 (Figure 2).

[2] = molecular target: T1, heparanase; assay: ECM degradation heparanase assay (sulfate-labeled ECM, Sepharose 6B gel filtration); type: biochemical; details: heparanase 200 ng, 5 h; for inhibition of heparanase activity (ECM degradation): 5 µg/mL compound; for inhibition at 25 µg/mL: 25 µg/mL compound
Procedure: ECM degradation heparanase assay was carried out as reported earlier. Briefly, ECM labeled with sulfate [^35S] [25] and coating the surface of 35-mm cultures plates was treated with heparanase (200 ng/mL) with or without compounds under investigation. The medium was collected to examine the cleavage of HS proteoglycans and subjected to molecular sieving on Sepharose 6B columns. The radioactivity was measured in the eluted fractions (0.2 mL). Blue dextran and phenol red were used to mark the excluded volume (Vo) and included volume (Vt), respectively. The cleaved HS chains were eluted at 0.5 < Kav < 0.8 (fractions 16–32), and the nearly intact proteoglycan was eluted with the void volume.
To validate the results and better resemble the in vivo situation, we applied metabolically sulfate [Na2^35SO4] labeled extracellular matrix (ECM) deposited by cultured endothelial cells. This naturally produced substrate closely resembles the subendothelial basement membrane in its composition, biological function, and barrier properties. […] This semi-quantitative assay measures release of radioactive heparan sulfate (HS) degradation fragments from an insoluble extracellular matrix (ECM) that is firmly bound to a culture dish.
(§1) Figure 3 Inhibition of ECM degradation and cell invasion. (A) ECM degradation. Active heparanase (200 ng) was incubated for 5 h without (red) or with 5 and 25 µg/mL of 4-CMI, 4-MDI, or 4-MMI on dishes coated with sulfate-labeled ECM. Labeled material released from the ECM was subjected to gel filtration (Sepharose 6B). Heparan sulfate degradation fragments are typically eluted in fractions 18–30. (B) Cell invasion. U87 human glioma cells (2 × 10^5) were plated onto Matrigel-coated 8 μm transwell filters and incubated (6 h, 37 °C) in the absence (Con) or presence of 4-MMI or 4-CMI (10 µg/mL). (C) Dose–response showing the effect of compound 4-MMI (2.5, 10, and 40 µg/mL) on U87 cell invasion. Invading cells adhering to the lower side of the membrane were visualized (top panels) and quantified (bottom panel) in 7 random fields as described in ‘Materials and Methods’.

[3] = tested on: 4T1 mouse breast carcinoma cells; assay: 4T1 breast carcinoma experimental metastasis, IVIS bioluminescence imaging; type: in vivo, BALB/c mice; details: IVIS day 13
Procedure: 4TI mouse breast cancer cells tagged with luciferase (1.5 × 10^5/0.1 mL/BALB/c mouse) were inoculated intravenously. Test compounds (i.p., 500 μg/mouse) or DMSO (0.1 mL/mouse) were administered 20 min before cell injection. The mice were analyzed using IVIS bioluminescent on day 7 and day 13 post-inoculation. These cells metastasize primarily to the lungs.
The bioluminescence imaging of tumors generated from luciferase-expressing cancer cells was carried out using a highly sensitive, cooled charge-coupled device camera assembled in a specimen box (IVIS; Xenogen Corp, Hopkinton, MA, USA). The imaging has advantages such as real-time capture, non-invasive, and quantitative values. For this, the tumor-bearing mice were intraperitoneally administered with a luciferase substrate D-luciferin at a dose of 150 mg/kg body weight. The experimental animal was anesthetized and kept in a camera box followed by continuous exposure to isoflurane (EZAnesthesia, Palmer, PA, USA). The bioluminescence from the tumor mass was detected by the IVIS system, and, subsequently, the tumor burden was quantified using Living Image software (Xenogen).
Figure 4 Inhibition of 4T1 breast carcinoma experimental metastasis. […] Quantification of the luciferase intensities is shown graphically in the lower panel, as described in ‘Section 2. […]

[4] = tested on: U87 human glioma cells; assay: Cell invasion through Matrigel-coated transwell filters (Boyden chambers); type: cell-based; details: 10 µg/mL, 6 h, 37 °C, Matrigel-coated 8 μm transwell filters
Procedure: Invasion assay was performed using Boyden chambers as reported previously. Briefly, U87 cells (5 × 10^5) were seeded into the upper chamber of the invasion chamber in a medium devoid of serum, and the lower chamber contained media supplemented with serum. The cell invasion on treatment with title compounds (4-MMI, 4-CMI; […]) was analyzed by staining with 0.5% crystal violet (Sigma-Aldrich) and photographed.
as §1

[5] = tested on: MPC-11 mouse myeloma cells; assay: MPC-11 syngeneic myeloma tumor growth; type: in vivo
Procedure: The mouse myeloma (MPC-11) cells were gently washed with PBS and the cell number was adjusted to 5 × 10^6 cells/mL. Thereafter, six-week-old female BALB/c mice (n = 6) were subcutaneously injected with washed MPC-11 cells (5 × 10^5/0.1 mL). The experimental animals were treated with either DMSO alone (0.1 mL/mouse) or 4-MMI (daily 200 μg/mouse, i.p.) starting from day 2 after the implantation of tumor cells, for 12 days. The tumor size was measured using calipers on day 8 and day 12. The tumor volume (V) was determined using the equation V = L × W^2 × 0.52, where L is the length and W is the width of the tumor. Lastly, the mice were euthanized and xenograft tumors were removed, weighed, and fixed using formalin for further studies.
Figure 5 MPC-11 tumor growth. Cells (MPC-11 mouse myeloma) from exponential cultures were washed with PBS and brought to a concentration of 5 × 10^6 cells/mL. Cell suspension (5 × 10^5/0.1 mL) was inoculated subcutaneously at the right flank of 6-week-old female BALB/c mice (n = 6). Mice were treated with either DMSO (0.1 mL/mouse) or test compound (daily 200 µg/mouse, i.p.), starting on day 2 after the injection of tumor cells, for 12 days. Tumor size was determined on days 8 and 12 by externally measuring the tumors in two dimensions using a caliper (A, p < 0.001). […]

[6] = tested on: VEGF; assay: Immunostaining of MPC-11 tumor sections with anti-VEGF antibodies; type: in vivo, BALB/c mice; details: tumors of mice treated daily with 200 μg/mouse i.p.
Procedure: Next, we examined the capacity of compound 4-MMI to inhibit myeloma primary tumor growth. For this purpose, we applied the MPC-11 syngeneic myeloma model. Briefly, BALB/c mice were implanted subcutaneously with MPC-11 mouse myeloma cells (0.5 × 10^6/mouse) and treated with either DMSO (0.1 mL/mouse) or 4-MMI (daily 200 μg/mouse, i.p.), starting on day two after tumor cell inoculation. Xenograft Tumor size was measured on days 8 and 12 (Figure 5A), resected, and weighed (Figure 5B) (see also Figure S2).
Figure S2. MPC-11 tumor growth. MPC-11 cells were inoculated subcutaneously at the right flank of 6-weeks old female Balb/C mice (n=6). Mice were treated with either DMSO (0.1 ml/mouse) or 4-MMI (daily 200 μg/mouse, i.p.) starting on day 2 after the injection of tumor cells, for 12 days. Tumor size was determined on days 8 and 12 (left panel). At the end of the experiment, mice were sacrificed and the tumors were resected and weighed (right panel). For more detail see figure 5.
Figure S3. Immunostaining. Tumors produced by untreated (control) a nd 4-MMI treated Balb/c mice were removed (day 13), fixed and embedded in paraffin. Five micron sections were subjected to immunostaining applying anti-VEGF antibodies. Shown are representative images (original magnification x100). […]

[7] = tested on: tumor cell; parameters: method as in PMID 28359266; details: cited from earlier work

Compound	IC50 [1] [µM]	inhibition of heparanase activity (ECM degradation) [2]	inhibition at 25 µg/mL [2] [%]	invasion capacity of U87 cells [4]	also measured
Cc1ccc(-c2nnc3sc(-c4cc(I)cc(I)c4O)nn23)cc1 [4-MDI, 2,4-diiodo-6-(3-(p-tolyl)-[1,2,4]triazolo[3,4-b][1,3,4]thiadiazol-6-yl)phenol]	22.3	little or no inhibition	50 to 70	–	–
Roneparstat [reference compound]	–	–	–	–	inhibition of 4T1 experimental metastasis (luciferase intensity) ([3]; positive control 150 µg/mouse i.p. 20 min before i.v. cell inoculation): comparable
Oc1ccc(I)cc1-c1nn2c(-c3ccc(Cl)cc3)nnc2s1 [4-CMI, 2-(3-(4-chlorophenyl)-[1,2,4]triazolo[3,4-b][1,3,4]thiadiazol-6-yl)-4-iodophenol]	6.6	little or no inhibition	50 to 70	significantly inhibited	–
Cc1ccc(-c2nnc3sc(-c4cc(I)ccc4O)nn23)cc1 [4-MMI, 4-iodo-2-(3-(p-tolyl)-[1,2,4]triazolo[3,4-b][1,3,4]thiadiazol-6-yl)phenol]	7.14	little or no inhibition	50 to 70	significantly inhibited	inhibition of 4T1 experimental metastasis (extravasation and lung colonization, luciferase intensity) ([3]; 500 μg/mouse i.p. 20 min before i.v. cell inoculation): inhibited the extravasation of 4T1 cells and their subsequent colonization in the mouse lungs; also recorded: nearly fourfold inhibition; tumor growth and tumor burden (tumor size days 8 and 12, tumor weight) ([5]; daily 200 μg/mouse i.p. from day 2 for 12 days, s.c. MPC-11 tumors): effectively and markedly decreased the rate of tumor growth and the tumor burden; also recorded: profound inhibition of tumor growth and burden; signs of distress and toxicity ([5]; daily administration of 200 ug/mouse/day): no signs of distress and toxicity; VEGF levels in tumor sections [6]: marked decrease in the levels of VEGF; also recorded: profound reduction in VEGF levels
N-(4-([4-(1H-Benzoimidazol-2-yl)-arylamino]-methyl)-phenyl)-benzamide [Compound #98, reference compound]	–	–	–	–	IC50, inhibition of heparanase enzymatic activity [1]: 0.7 µg/mL
Oc1c(I)cc(I)cc1-c1nn2c(-c3ccccc3)nnc2s1 [DTP, 2,4-Diiodo-6-(3-phenyl-[1,2,4]triazolo[3,4-b][1,3,4]thiadiazol-6yl)phenol, reference compound]	54.9	–	–	–	IC50 values, inhibition of tumor cell proliferation, migration, and invasion in vitro [7]: micromolar range
